“Also recorded” adds a separate entry of the source. Where two headings read alike, the source gives them in different places.
Experiments:
PS liposomes = assay: SPR binding to PS liposomes; settings: for association rate constant (Kon) / dissociation rate constant (Koff): PS:PC (2:8) liposomes, PC response subtracted, Tris-HCl pH 8.0, 2 mM CaCl2, Scrubber, value from picture
Excerpt: To compare the kinetics of annexin V and PSP1 peptide binding to PS liposomes, SPR spectroscopy was employed (Reichert Inc, NY, USA). PC and PS liposomes (0.8:0.2 PC:PS) were generated as previously described and were homogenously purified using a liposome mini-extruder with a 100 nm membrane filter, based on the manufacturer’s protocol (Avanti Polar Lipids). […] Briefly, phytosphingosine was immobilized by activating the carboxymethyl groups on dextran-coated chips (Reichert Life Sciences) through a reaction with N-hydroxysuccinimide (Sigma-Aldrich), followed by covalent bonding of the ligands to the chip surface via amide linkages and blocking of excess activated carboxyls with ethanolamine. The purified PS or PC liposomes were captured on the phytosphingosine layer at a flow rate of 5 μl/min in liposome immobilization buffer (10 mM Tris-HCl (pH 8.0), 100 mM NaCl, and 2 mM CaCl2). To use the PC-immobilized surface as a control, the injected PS or PC liposome volume was adjusted to an immobilization level of approximately 4000±200 RU. Different concentrations of the PSP1 peptide (0.313 to 5 μM) and annexin V (3.13 to 100 nM) in running buffer (10 mM Tris-HCl (pH 8.0), 100 mM NaCl, 2 mM CaCl2, and 62.5 μg/ml BSA) were allowed to flow over the surfaces bound to the immobilized liposomes for 3 min at a rate of 30 μl/min. The sensor surface was regenerated after each association and dissociation cycle by injecting 10 mM EDTA for 20 s, followed by 50 mM NaOH for 10 s. The interaction of the ligand and the analyte was analyzed using Scrubber 2 Biologic software (http://www.biologic.com.au/). The binding kinetics was assessed by determining the association (kon), dissociation (koff), and equilibrium (KD) constants.
The in vitro binding affinity of PSP1 and annexin V for PS was further examined using SPR analysis (Fig. 2). […] We immobilized PS liposomes on the surface of an SPR chip, applied a series of different concentrations of PSP1 or annexin V, and examined the binding kinetics. PS-specific binding was determined by subtracting binding responses to a PC liposome-coated surface from those obtained using a PS liposome-coated […] surface.
Fig 2 In vitro SPR analysis of PSP1 and annexin V binding to PS liposomes. (A) The indicated concentrations of PSP1 were injected onto the liposome-immobilized surface. Responses (RU) from the PC liposome-coated surface (reference) were subtracted from those from the PS:PC (2:8) liposome surface to monitor PS-specific binding. The equilibration binding constant (KD) and the association (Kon) and dissociation (Koff) rate constants were estimated using the Scrubber program. (B) Plots of the RU values of annexin V at the indicated concentrations.

apoptotic H460 cells [1] = assay: FACS binding to apoptotic H460 cells; type: cell-based, human; settings: FITC-labeled, etoposide 50 μM 22 hrs, 2, 10, 20, 50 μg/ml, binding buffer 10 mM Hepes pH 7.4, 150 mM NaCl ± 2 mM CaCl2, 4°C, 1 hr
Experimental: The human lung cancer cell H460, which was obtained from the American Type Culture Collection (ATCC), was maintained in RPMI-1640 media supplemented with 10% heat-inactivated fetal bovine serum (FBS) and penicillin G/streptomycin at 37°C in a humidified atmosphere of 95% air and 5% CO2.
To induce apoptosis of lung tumor cells (H460), the cells (5×10^6 cell) were grown overnight and then treated with etoposide (50 μM) (Sigma) in serum-free media for 22 hrs, followed by washing with phosphate-buffered saline (PBS) and binding buffer (10 mM Hepes (pH 7.4), 150 mM NaCl, and 2 mM CaCl2).
Control peptide (grey); FITC-NSSSVDK.

[2] = test system: apoptotic tumor cells in H460 tumor-bearing mice; assay: in vivo fluorescence imaging of tumors after apoptosis induction; set-up: species or system BALB/c nude mice; human H460 tumor; settings: Cy7.5-labeled; for duration of in vivo fluorescence signal in tumor region: i.v. tail vein, camptothecin 10 mg/kg 24 hrs before, PSP1 10 μg/200 μl (23.16 μM), annexin V 100 μg/200 μl (14.3 μM); for in vivo tumor homing: camptothecin-treated H460 tumor-bearing mice, n = 5, imaging 10 min to 12 h, PSP1 10 μg/200 μl, annexin V and control peptide 100 μg/200 μl
Experimental: Female nude mice (BALB/c nude; body weight, 20±3 g; n = 5) were housed in a specific pathogen-free environment at 22±2°C and 55±5% relative humidity with light. Tumors were generated by subcutaneously injecting H460 cells (5×10^6 cells) into the right shoulder of 6-wk-old female BALB/c nude mice and allowing them to grow for 3 weeks (size of 0.5 to 0.7 cm). For in vivo analysis of tumor targeting, the tumor-bearing mice were either treated or not treated with a single dose of camptothecin (10 mg/kg) 24 hrs prior to intravenous injection of Cy7.5-labeled PSP1, Cy7.5-annexin V or Cy7.5-labeled control peptide into the tail vein under inhalational anesthesia (1% (w/v) isoflurane in 2 L oxygen).
In vivo fluorescence images were taken at different time intervals after peptide injection (10 min, 1 h, 3 h, 6 h, and 12 h) using an eXplore Optix system (ART Advanced Research Technologies Inc., Montreal, Canada), which has excitation/emission wavelengths of 778 nm/805 nm. The obtained images were processed using eXplore Optix OptiView Software and normalized based on the baseline fluorescence, assessed for each mouse prior to peptide injection.
Fig 4 In vivo imaging of tumors after apoptosis induction. (A) Cy7.5-labelled PSP1peptide, control peptide, or annexin V was systematically injected into the tail vein of tumor-bearing nude mice treated with camptothecin 24 hrs before injection. The same amount of annexin V was also injected into non-camptothecin-treated tumor-bearing mice as a control. The homing of the peptides was examined after the indicated times using an optical imaging system. The white dotted circles indicate the tumors. (B) Histological examination of tumor tissues after homing of PSP1 and annexin V, performed under a fluorescence microscope. Tumor cell apoptosis was observed by TUNEL staining.

untreated cancer cells = assay: binding to normal (untreated) cancer cells, microscopy; type: cell-based, human; settings: 40 μg/ml; data not shown
Experimental: (A) Apoptotic H460 cells in a chamber slide were incubated with 20 μg of PSP1, control peptide, or annexin V for 30 min. The cells were washed and fixed with 4% PFA before staining with DAPI. The confocal images were taken by laser confocal microscopy. (B) Normal H460 cells were subjected to incubation with the same amount of peptide or annexin V.

apoptotic H460 cells [3] = assay: confocal microscopy of binding to apoptotic H460 cells; type: cell-based, human; settings: for apoptotic cell-specific signal (confocal microscopy): FITC-labeled, 20 μg/ml, apoptotic H460 (etoposide 50 μM), 4°C, 1 hr
[4] = test system: apoptotic cells in tumor tissue; assay: histological examination of tumor tissues after in vivo homing; set-up: species or system BALB/c nude mice; human H460 tumor; settings: Cy7.5-labeled, i.v., tumors removed at 6 hr, camptothecin-treated mice
Experimental: At the 6 hr time point, the animals were euthanized with CO2, and tumor tissues were removed from a subset of animals. The tumor tissues were then fixed by incubating with 4% paraformaldehyde (PFA) overnight, followed by freezing for cryosectioning and immunohistochemical studies under a fluorescence microscope (Zeiss, Oberkochen, Germany). Apoptosis in the tumor tissues was assessed by […] terminal deoxynucleotidyl transferase-mediated dUTP nick-end labelling (TUNEL) staining in accordance with the manufacturer’s instructions (Chemicon Int., Temecula, CA, USA).  Fig 4 In vivo imaging of tumors after apoptosis induction. (A) Cy7.5-labelled PSP1peptide, control peptide, or annexin V was systematically injected into the tail vein of tumor-bearing nude mice treated with camptothecin 24 hrs before injection. The same amount of annexin V was also injected into non-camptothecin-treated tumor-bearing mice as a control. The homing of the peptides was examined after the indicated times using an optical imaging system. The white dotted circles indicate the tumors. (B) Histological examination of tumor tissues after homing of PSP1 and annexin V, performed under a fluorescence microscope. Tumor cell apoptosis was observed by TUNEL staining.

[5] = phage display; ref [17]; cited from earlier work
[6] = test system: necrotic and nonapoptotic cells with exposed anionic lipids; settings: under specific physiological or pathological conditions, ref [12], cited from earlier work
Excerpt: (§1) The exposure of phosphatidylserine (PS) on the outer surface of the plasma membrane bilayer, an early biochemical event in apoptosis, is an attractive target for molecular imaging of dying cells. During chemo- and radiotherapy, subsequent necrosis also results in PS exposure due to disruption of the plasma membrane’s integrity. […] The stability and biodistribution of annexin V derivatives depend ...

[7] = calcium-dependent; ref [9],[10]; cited from earlier work
Excerpt: as §1

| Kd (PS liposomes; PS liposomes, PC liposome response subtracted, Tris-HCl pH 8.0, 2 mM CaCl2, read-out: in vitro binding affinity (equilibrium binding constant, KD)) [nM] | association rate constant (Kon) (PS liposomes) | dissociation rate constant (Koff) (PS liposomes) | Kd (PS liposomes; PS liposomes, PC liposome response subtracted, Tris-HCl pH 8.0, 2 mM CaCl2, read-out: in vitro binding affinity (equilibrium binding constant)) [nM] | equilibration binding constant (KD) (PS liposomes; PS:PC (2:8) liposomes on phytosphingosine/CMDH chip, PC liposome response subtracted, 10 mM Tris-HCl pH 8.0, 100 mM NaCl, 2 mM CaCl2, 62.5 μg/ml BSA, PSP1 0.313 to 5 μM, annexin V 3.13 to 100 nM, 3 min, 30 μl/min, Scrubber 2, values from picture) [nM] | Substance | PS binding kinetics in words (PS liposomes; PS liposomes, real-time association and dissociation) | binding to apoptotic H460 cells (FACS) (apoptotic H460 cells [1]) | duration of in vivo fluorescence signal in tumor region [2] | in vivo tumor homing ([2]; i.v.) | binding to untreated cancer cells (untreated cancer cells) | apoptotic cell-specific signal (confocal microscopy) (apoptotic H460 cells [3]) | tumor-homing fluorescence signal in tumor cryosections [4] | interaction with PS on apoptotic cells [5] | specificity of annexin V for apoptotic cells [6] | specificity of annexin V for apoptotic cells ([6]; listed as Annexin V) | PS binding affinity of annexin V [7] | binding to apoptotic H460 cells (FACS) (apoptotic H460 cells [1]; listed as Annexin V) | in vivo tumor homing, non-camptothecin-treated ([2]; i.v., 100 μg/200 μl, non-camptothecin-treated tumor-bearing mice) | predicted sensitivity of annexin V over PSP1 (apoptotic H460 cells [3]; same concentration, predicted from KD ratio, molar concentration 1/16th and 0.7 FITC groups/molecule, not observed) [fold] |
| --- | --- | --- | --- | --- | --- | --- | --- | --- | --- | --- | --- | --- | --- | --- | --- | --- | --- | --- | --- |
| 10700 | 5.05±3.00×10^1 M^-1S^-1 | 2.87±0.95×10^-4 S^-1 | – | – | CLSYYPSYC [PSP1, peptide-based phosphatidylserine (PS) indicator PSP1 (…)] | binds much more slowly to PS but, once bound, forms a more stable complex (slow dissociation) compared with annexin V; also recorded: dissociation of PSP1 was slow, even slower than that of annexin V | specifically bound to apoptotic H460 cells in a concentration-dependent manner; also recorded: specifically binds to apoptotic cells through PS exposed on the apoptotic cell surface | more than 12 hrs | generated apoptosis/tumor-specific signals after cancer treatment in the animal model; also recorded: appeared higher than those of annexin V for the entire measurement period; also recorded: rapidly observed in the tumor region; also recorded: specifically homed to apoptotic cells in tumors after cancer therapy; also recorded: specifically targeted apoptotic cells in tumors following systemic administration | a small degree of binding to untreated cancer cells | apoptotic cell-specific signals were clearly detected; also recorded: targets apoptotic tumor cells more efficiently than annexin V does | significantly more prominent than that of annexin V | specific interaction with PS on apoptotic cells | – | – | – | – | – | – |
| – | 1.05±0.76×10^6 M^-1S^-1 | 1.75±1.28×10^-3 S^-1 | 3.1 | 3.15 | annexin V: endogenous 36-kDa human protein that binds to PS with nanomolar affinity; His-tagged, expressed in Escherichia coli BL-21 | – | specifically bound to apoptotic H460 cells in a concentration-dependent manner | more than 12 hrs | weak signals; also recorded: rapidly observed in the tumor region | – | significantly weaker at the same concentration | – | – | not entirely specific for apoptotic cells | targets necrotic as well as nonapoptotic cells with exposed anionic lipids | binds to PS with nanomolar affinity in a calcium-dependent manner | appeared to exhibit a greater ability to bind to apoptotic cells | did not home to the tumor region | 150 |
